Laboratory results as given in the NIST ThermoML archive (doi:10.1021/je1005483).

Legend:
[1] = xn = mol fraction of the nth substance listed; conditions: 101.3 kPa, Liquid; for speed of sound: 298.15 K
[2] = molar heat capacity at constant pressure; conditions: 298.15 K; 101.3 kPa; Liquid; Flow calorimetry
[3] = 101.3 kPa, Liquid; for speed of sound: 298.15 K

CC#N [acetonitrile] + CC1COC(=O)O1
Conditions | speed of sound [m/s]
[1], x2 = 0 | 1279.6

[1], x2 = 0
Conditions | mass density [kg/m3]
308.15 K | 765.735
318.15 K | 755.763

CC1COC(=O)O1 (configuration not stated) [4-methyl-1,3-dioxolan-2-one]
Conditions | molar heat capacity at constant pressure [J/K/mol] | speed of sound [m/s]
[2] | 166.98 | –
[3] | – | 1443

[3]
Conditions | mass density [kg/m3]
308.15 K | 1188.73
318.15 K | 1179.31

CC#N [acetonitrile] + CC(=O)N(C)C
Conditions | speed of sound [m/s]
[1], x2 = 0 | 1279.6

[1], x2 = 0
Conditions | mass density [kg/m3]
308.15 K | 765.735
318.15 K | 755.763

CC#N [acetonitrile]
Conditions | speed of sound [m/s]
[3] | 1279.6

[3]
Conditions | mass density [kg/m3]
308.15 K | 765.735
318.15 K | 755.763

CC(=O)N(C)C [N,N-dimethylethanamide] + CC#N
[1]
Conditions | speed of sound [m/s]
x1 = 0.04872 | 1286.5
x1 = 0.1004 | 1297.5
x1 = 0.1898 | 1315.5
x1 = 0.2932 | 1336.4
x1 = 0.4046 | 1357.3
x1 = 0.503 | 1375.5
x1 = 0.6044 | 1393.7
x1 = 0.7074 | 1410.8
x1 = 0.8048 | 1427.5
x1 = 0.9035 | 1440
x1 = 1 | 1458.7

mass density [kg/m3], [1]
Conditions | 308.15 K | 318.15 K
x1 = 0.00994 | 768.688 | –
x1 = 0.01091 | – | 759.018
x1 = 0.02031 | 771.713 | –
x1 = 0.02054 | – | 761.841
x1 = 0.03016 | 774.535 | –
x1 = 0.0309 | – | 764.83
x1 = 0.04069 | 777.504 | –
x1 = 0.04289 | – | 768.228
x1 = 0.05104 | 780.389 | –
x1 = 0.0529 | – | 771.009
x1 = 0.05848 | 782.424 | –
x1 = 0.05906 | – | 772.711
x1 = 0.06932 | 785.313 | –
x1 = 0.06978 | – | 775.606
x1 = 0.08223 | 788.745 | –
x1 = 0.08535 | – | 779.778
x1 = 0.08742 | – | 780.299
x1 = 0.09057 | 790.902 | –
x1 = 0.1009 | 793.541 | –
x1 = 0.1022 | – | 784.094
x1 = 0.1438 | – | 794.432
x1 = 0.1497 | 805.533 | –
x1 = 0.1834 | – | 803.73
x1 = 0.1884 | 814.49 | –
x1 = 0.2301 | – | 813.975
x1 = 0.237 | 824.887 | –
x1 = 0.2935 | – | 826.829
x1 = 0.3015 | 837.769 | –
x1 = 0.387 | – | 843.966
x1 = 0.4044 | 856.101 | –
x1 = 0.503 | – | 862.53
x1 = 0.5085 | 872.475 | –
x1 = 0.6026 | – | 876.476
x1 = 0.6251 | 888.44 | –
x1 = 0.7047 | – | 889.23
x1 = 0.7059 | 898.16 | –
x1 = 0.8034 | 908.919 | –
x1 = 0.8085 | – | 900.68
x1 = 0.9024 | 918.675 | –
x1 = 0.909 | – | 910.546
x1 = 0.9117 | 919.547 | –
x1 = 0.9144 | – | 911.049
x1 = 0.9215 | – | 911.696
x1 = 0.9216 | 920.459 | –
x1 = 0.932 | – | 912.659
x1 = 0.9322 | 921.402 | –
x1 = 0.941 | 922.202 | –
x1 = 0.9414 | – | 913.506
x1 = 0.9515 | 923.129 | –
x1 = 0.9546 | – | 914.681
x1 = 0.9614 | 924 | –
x1 = 0.963 | – | 915.423
x1 = 0.9712 | 924.844 | –
x1 = 0.9716 | – | 916.181
x1 = 0.9809 | – | 916.988
x1 = 0.9811 | 925.7 | –
x1 = 0.9893 | 926.398 | –
x1 = 0.9911 | – | 917.856
x1 = 1 | 927.294 | 918.616

CC(=O)N(C)C [N,N-dimethylethanamide]
Conditions | speed of sound [m/s]
[3] | 1458.7

[3]
Conditions | mass density [kg/m3]
308.15 K | 927.294
318.15 K | 918.616
